According to article PMC5656322, “BAK1 is involved in AtRALF1-induced inhibition of root cell expansion” (PLoS Genetics, 2017):
Where no end group is shown, it is not given here.

Legend:
[1] = tested on: truncated proteins from the extracellular domain of BAK1; assay: Yeast two-hybrid with truncated BAK1-ECD; type: binding, Arabidopsis thaliana
Source text: Fig 6 AtRALF1 interacts physically with BAK1 protein. (A) The active AtRALF1 peptide interacts with the extracellular domain (ECD) of BAK1 (BAK1-ECD) in yeast. The AtRALF1 protein fused to the GAL4 DNA-binding domain (AtRALF1-pGBKT7) was used as bait to test its interaction with the extracellular domain of the proteins fused to the GAL4 activation domain (pGADT7): BAK1 (BAK1-ECD), BAK7 (BAK7-ECD), BRI1 (BRI1-ECD) and FLS2 (FLS2-ECD). (B) Blueprint showing the truncated proteins from the extracellular domain of BAK1 tested in the two-hybrid assay. The extracellular domain of BAK1 comprises leucine zippers (LZ), 5 leucine rich-regions (LRRs) and a proline-rich region (pro-rich). (C) AtRALF1-pGBKT7 was used as bait to test its interaction with truncated proteins fused to the GAL4 activation domain (pGADT7). The transformed yeast cells in (A) and (C) were selected on a synthetic complete medium lacking leucine, tryptophan and histidine to test interactions. (D, E) Co-immunoprecipitation (Co-IP) in vitro between the extracellular domain of BAK1 (HA-BAK1-ECD) and AtRALF1 recombinant purified proteins. HA-BAK1-ECD was detected with an anti-HA antibody. AtRALF1 was detected with an anti-RALF antibody. (F) Recombinant AtRALF1 is co-immunoprecipitated with the BAK1-GFP protein expressed in tobacco. BAK1-GFP was detected with an anti-GFP antibody. […] (G) Isothermal titration calorimetry (ITC) of the extracellular domain of BAK1 (BAK1-ECD) vs. AtRALF1 in ITC buffer (15 mM HEPES, pH 6.8). ITC experiments were simulated using 28 injections of BAK1-ED (0.7 mM, vol 10 μL) on AtRALF1 (0.03 mM vol cell = 1.4 mL) at 25°C. […]
(§1) The coding regions of the mature peptides AtRALF1 and AtRALF34 were amplified from Arabidopsis genomic DNA and fused to the GAL4 DNA-binding domain and the MYC epitope tag using the NdeI/BamHI sites in the pGBKT7 (Clontech) vector. […] The proteins fused to the HA and MYC epitope tags were detected by protein blotting. […]
Supplementary file pgen.1007053.s012.pdf: S12 Fig Analyses of protein extracts from yeast. […] The proteins were monitored using an anti-HA antibody. […]

FLS2 (FLS2-ECD) = assay: Yeast two-hybrid with FLS2-ECD; type: binding, Arabidopsis thaliana; settings: yeast AH109, medium lacking Leu, Trp, His
Source text: (§2) Fig 6 AtRALF1 interacts physically with BAK1 protein. (A) The active AtRALF1 peptide interacts with the extracellular domain (ECD) of BAK1 (BAK1-ECD) in yeast. The AtRALF1 protein fused to the GAL4 DNA-binding domain (AtRALF1-pGBKT7) was used as bait to test its interaction with the extracellular domain of the proteins fused to the GAL4 activation domain (pGADT7): BAK1 (BAK1-ECD), BAK7 (BAK7-ECD), BRI1 (BRI1-ECD) and FLS2 (FLS2-ECD). (B) Blueprint showing the truncated proteins from the extracellular domain of BAK1 tested in the two-hybrid assay. The extracellular domain of BAK1 comprises leucine zippers (LZ), 5 leucine rich-regions (LRRs) and a proline-rich region (pro-rich). (C) AtRALF1-pGBKT7 was used as bait to test its interaction with truncated proteins fused to the GAL4 activation domain (pGADT7). […] HA-BAK1-ECD was detected with an anti-HA antibody. AtRALF1 was detected with an anti-RALF antibody. […] BAK1-GFP was detected with an anti-GFP antibody. […]
as §1

[2] = tested on: microsomal fractions from the roots of Arabidopsis; assay: Binding assay with acridinium-labeled AtRALF1, microsomal fractions; set-up: species or system Arabidopsis thaliana
Method: (A) Whole seedlings (5 days old) were treated for 15 min with acriAtRALF1 (acriR1), acriR1 and an excess of unlabeled AtRALF34 (R34), RALF1(9–49) [(R-9-49)], or AtRALF1 (R1), as indicated. The values are the mean ± SD of two measurements (5 seedlings each). (B) Microsomal fractions from wild-type and bak1 mutants were incubated for 15 min with acriAtRALF1 (acriR1), with acriR1 and an excess of unlabeled RALF1(9–49) [(R-9-49)], or with AtRALF1 (R1), as indicated. The values are the mean ± SD of two measurements. The proportions of labeled: unlabeled proteins are shown in parentheses. Single and triple asterisks indicate P < 0.1 and P < 0.01 (Student’s t test).
Arabidopsis seedlings were grown for 5 days on vertical plates. Roots were homogenized in extraction buffer [300 mM sucrose, 100 mM Tris-HCl pH 7.5, 25 mM EDTA, 25 mM NaF, 1 mM Na2MoO4, 1 mM PMSF and protease inhibitor cocktail (Roche), adjusted to pH 6.2], and the homogenate was spun at 2,000 x g for 10 min at 4 °C. The supernatant was recovered and centrifuged at 100,000 x g for 50 min at 4 °C to precipitate the microsomal pellet. The pellet was resuspended in the extraction buffer plus 0.5% Triton-X. Seedlings or microsomal fractions were placed in 200 μl of medium and incubated with 7 nM acridinium-labeled peptide (acriAtRALF1 or acriAtRALF34) and different concentrations of AtRALF1, AtRALF34 or RALF1(9–49) for 15–20 min at 4 °C on a shaker. After incubation, the seedlings or microsomal fractions were washed three times with the same medium. Unless indicated otherwise, five entire seedlings and approximately 10 ng of microsomal fractions were used per treatment. The resulting luminescence emissions from the acridinium were measured using a microplate reader (Biotec ELx 800) at 2 s after injecting 50 μl of a solution containing 20 mM H2O2 in 0.1 M NaOH. These experiments were repeated at least three times using independent biological replicates. Duplicates were used for each concentration or treatment. The data shown are from one representative experiment.

BAK7 (BAK7-ECD) = assay: Yeast two-hybrid with BAK7-ECD; type: binding, Arabidopsis thaliana; settings: yeast AH109, medium lacking Leu, Trp, His
Source text: as §2, §1

Q: Which results are given for “AtRALF1: root-specific RALF isoform in Arabidopsis; recombinant peptide hormone produced in E. coli (ATTKYISYQSLKRNSVPCSRRGASYYNCQNGAQANPYSRGCSKIARCRS; ends and bridges not checked; cysteine pairing not given here)”?
A: interaction with truncated BAK1-ECD ([1]; 12 truncated proteins): only two that interacted with AtRALF1: Leu zippers + LRR1 + LRR2 + LRR3 and Leu zippers + LRR1 + LRR2; interaction with BAK1-ECD lacking Pro-rich region and LRR5 ([1]; C-terminal deletion): abolished the interaction; interaction with N-terminal deletions of BAK1-ECD ([1]; deletions from N-terminal): None of the deletions from N-terminal were able to interact with AtRALF1; interaction with FLS2-ECD (Y2H complementation) (FLS2 (FLS2-ECD)): able to complement only the BAK1-ECD construct; share of AtRALF1 binding due to BAK1 ([2]; microsomal fractions from roots): approximately 15%; acriAtRALF1 binding reduced to, of the total ([2]; microsomal fractions of wild-type and bak1, 10-fold excess of AtRALF1): approximately 30%; acriAtRALF1 binding reduced to, of the total binding ([2]; microsomal fractions of wild-type and bak1, 100- or 500-fold excess of AtRALF1): approximately 60%; interaction with BAK7-ECD (Y2H complementation) (BAK7 (BAK7-ECD)): able to complement only the BAK1-ECD construct
